Each structure is given as a SMILES string.

One data set has as its target T1, human CRF1 receptor (Homo sapiens, UniProt P34998).
T1 construct: expressed in transfected cells; host or cells: CHO cells (membrane fraction)
T1 sequence (P34998 24-415): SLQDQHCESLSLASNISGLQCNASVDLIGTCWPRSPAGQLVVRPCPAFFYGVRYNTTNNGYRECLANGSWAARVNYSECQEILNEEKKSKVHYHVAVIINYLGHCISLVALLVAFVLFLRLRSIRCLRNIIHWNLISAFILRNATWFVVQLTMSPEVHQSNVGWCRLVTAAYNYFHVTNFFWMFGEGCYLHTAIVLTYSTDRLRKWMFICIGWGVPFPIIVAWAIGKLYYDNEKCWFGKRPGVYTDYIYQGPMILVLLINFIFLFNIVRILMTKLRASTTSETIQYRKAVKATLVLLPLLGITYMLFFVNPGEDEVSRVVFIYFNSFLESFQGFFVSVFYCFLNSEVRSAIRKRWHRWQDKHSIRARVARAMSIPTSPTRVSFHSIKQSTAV
Put plainly: Measurement of CRF Binding Inhibitory Rate (receptor binding experiment with 125I-CRF). As to conditions: human CRF1 receptor expressing CHO cellular membrane fraction, 50 pM 125I-CRF, room temperature 1.5 hr, 0.05 nM to 10 μM of compound; read-out: IC50 values (CRF binding inhibition).

For the compound `CCC(OC(=O)COC)c1ccc(Cl)c2nc3n(c12)CCCN3c1ccc(Cl)cc1Cl` (stereo not shown) [Example 432, 1-[9-Chloro-1-(2,4-dichlorophenyl)-1,2,3,4-tetrahydropyrimido[1,2-a]benzimidazol-6-yl]propyl methoxyacetate], the melting point lay in the range of 156 to 158 °C. Moreover, at human CRF1 receptor, the IC50 is less than 1000 nM.

For `CCC(OC(=O)CS(C)(=O)=O)c1ccc(Cl)c2nc3n(c12)CCCN3c1ccc(Cl)cc1Cl` (stereo not shown) [Example 433, 1-[9-Chloro-1-(2,4-dichlorophenyl)-1,2,3,4-tetrahydropyrimido[1,2-a]benzimidazol-6-yl]propyl (methylsulfonyl) acetate], the melting point was 187 to 189 °C. Moreover, on human CRF1 receptor, the IC50 was less than 1000 nM.

As for `CCC(OC(C)=O)c1ccc(Cl)c2nc3n(c12)CCN3c1c(C)cc(Cl)cc1Cl` (stereo not shown) [Example 437, 1-[8-Chloro-1-(2,4-dichloro-6-methylphenyl)-2,3-dihydro-1H-imidazo[1,2-a]benzimidazol-5-yl]propyl acetate], the melting point is 190 to 192 °C. In addition, the IC50 on human CRF1 receptor is less than 1000 nM.

As to `CCC(NC(C)=O)c1ccc(Cl)c2nc3n(c12)CCCN3c1ccc(Cl)cc1Cl` (stereo not shown) [Example 440, N-{1-[9-Chloro-1-(2,4-dichlorophenyl)-1,2,3,4-tetrahydropyrimido[1,2-a]benzimidazol-6-yl]propyl}acetamide], the melting point was in the range of 237 to 239 °C. The IC50 at human CRF1 receptor was less than 1000 nM.

`CCC(OC(=O)CO)c1ccc(Cl)c2nc3n(c12)CCCN3c1ccc(Cl)cc1Cl` (stereo not shown) [Example 443, 1-[9-Chloro-1-(2,4-dichlorophenyl)-1,2,3,4-tetrahydropyrimido[1,2-a]benzimidazol-6-yl]propyl hydroxyacetate] showed a melting point of 191 to 193 °C. Further, the IC50 at human CRF1 receptor is less than 1000 nM.

`CCC(NC(=O)OC)c1ccc(Cl)c2nc3n(c12)CCCN3c1ccc(Cl)cc1Cl` (stereo not shown) [Example 446, Methyl {1-[9-chloro-1-(2,4-dichlorophenyl)-1,2,3,4-tetrahydropyrimido[1,2-a]benzimidazol-6-yl]propyl}carbamate] returned a melting point of 201 to 203 °C. Further, the IC50 on human CRF1 receptor was less than 1000 nM.

In turn, `CCC(NC(=O)CC(F)(F)F)c1ccc(Cl)c2nc3n(c12)CCCN3c1ccc(Cl)cc1Cl` (stereo not shown) [Example 447, N-{1-[9-Chloro-1-(2,4-dichlorophenyl)-1,2,3,4-tetrahydropyrimido[1,2-a]benzimidazol-6-yl]propyl}-3,3,3-trifluoropropanamide] showed a melting point of 285 to 290 °C. In addition, the IC50 at human CRF1 receptor is less than 1000 nM.

Turning to `CCC(CCO)c1ccc(Cl)c2nc3n(c12)CCCN3c1ccc(Cl)cc1Cl` (stereo not shown) [Example 450, 3-[9-Chloro-1-(2,4-dichlorophenyl)-1,2,3,4-tetrahydropyrimido[1,2-a]benzimidazol-6-yl]pentan-1-ol], the melting point lay within 183 to 185 °C. The IC50 at human CRF1 receptor is less than 1000 nM.

Compound `CCC(CC(C)=O)c1ccc(Cl)c2nc3n(c12)CCCN3c1ccc(Cl)cc1Cl` (stereo not shown) [Example 452, 4-[9-Chloro-1-(2,4-dichlorophenyl)-1,2,3,4-tetrahydropyrimido[1,2-a]benzimidazol-6-yl]hexan-2-one] had a melting point of 195 to 197 °C. The half-maximal inhibitory concentration (IC50) on human CRF1 receptor is less than 1000 nM.

In the case of `CCC(CCOC)c1ccc(Cl)c2nc3n(c12)CCCN3c1ccc(Cl)cc1Cl` (stereo not shown) [Example 453, 9-Chloro-1-(2,4-dichlorophenyl)-6-(1-ethyl-3-methoxypropyl)-1,2,3,4-tetrahydropyrimido[1,2-a]benzimidazole], the melting point lay within 144 to 146 °C. For the same compound, the IC50 at human CRF1 receptor is less than 1000 nM.

For the compound `CCC(OCC(F)(F)F)c1ccc(Cl)c2nc3n(c12)CCCN3c1ccc(Cl)cc1Cl` (stereo not shown) [Example 454, 9-Chloro-1-(2,4-dichlorophenyl)-6-[1-(2,2,2-trifluoroethoxy)propyl]-1,2,3,4-tetrahydropyrimido[1,2-a]benzimidazole], the melting point was in the range of 146 to 148 °C. The concentration for half-maximal inhibition (IC50) on human CRF1 receptor is less than 1000 nM.

Regarding `FC(F)(F)COC(c1ccc(Cl)c2nc3n(c12)CCCN3c1ccc(Cl)cc1Cl)C1CC1` (stereo not shown) [Example 455, 9-Chloro-6-[cyclopropyl (2,2,2-trifluoroethoxy)methyl]-1-(2,4-dichlorophenyl)-1,2,3,4-tetrahydropyrimido[1,2-a]benzimidazole], the melting point is 143 to 145 °C. The concentration for half-maximal inhibition (IC50) on human CRF1 receptor was less than 1000 nM.

In turn, `CCNC(CC)c1ccc(Cl)c2nc3n(c12)CCCN3c1ccc(Cl)cc1Cl` (stereo not shown) [Example 458, 1-[9-Chloro-1-(2,4-dichlorophenyl)-1,2,3,4-tetrahydropyrimido[1,2-a]benzimidazol-6-yl]-N-ethylpropan-1-amine] yielded a melting point of 124 to 127 °C. Further, the IC50 at human CRF1 receptor is less than 1000 nM.

`CCC(NCC(F)(F)F)c1ccc(Cl)c2nc3n(c12)CCCN3c1ccc(Cl)cc1Cl` (stereo not shown) [Example 459, 1-[9-Chloro-1-(2,4-dichlorophenyl)-1,2,3,4-tetrahydropyrimido[1,2-a]benzimidazol-6-yl]-N-(2,2,2-trifluoroethyl)propan-1-amine] gave a melting point of 133 to 135 °C. At human CRF1 receptor, the IC50 is less than 1000 nM.

`CCC(c1ccc(Cl)c2nc3n(c12)CCCN3c1ccc(Cl)cc1Cl)S(=O)(=O)CC` (stereo not shown) [Example 462]: the melting point was 278 to 280 °C. Besides, on human CRF1 receptor, the IC50 was less than 1000 nM.

Consider `CCC(NC(=O)C(F)F)c1ccc(Cl)c2nc3n(c12)CCCN3c1ccc(Cl)cc1Cl` (stereo not shown) [Example 463, N-{1-[9-Chloro-1-(2,4-dichlorophenyl)-1,2,3,4-tetrahydropyrimido[1,2-a]benzimidazol-6-yl]propyl}-2,2-difluoroacetamide], for which the melting point lay within 248 to 250 °C. Also, at human CRF1 receptor, the IC50 is less than 1000 nM.

Compound `O=C(OC(c1ccc(Cl)c2nc3n(c12)CCCN3c1ccc(Cl)cc1Cl)C1CC1)C1CC1` (stereo not shown) [Example 478, 1-[9-Chloro-1-(2,4-dichlorophenyl)-1,2,3,4-tetrahydropyrimido[1,2-a]benzimidazol-6-yl](cyclopropyl)methyl cyclopropanecarboxylate] returned a melting point of 168 to 170 °C. The IC50 on human CRF1 receptor is less than 1000 nM.

As to `COCC(=O)OC(c1ccc(Cl)c2nc3n(c12)CCCN3c1ccc(Cl)cc1Cl)C1CC1` (stereo not shown) [Example 479], the melting point lay in the range of 159 to 161 °C. Also, on human CRF1 receptor, the IC50 is less than 1000 nM.

`CCC(OC(=O)C1CC1)c1ccc(Cl)c2nc3n(c12)CCCN3c1ccc(OC)cc1Cl` (stereo not shown) [Example 482, 1-[9-Chloro-1-(2-chloro-4-methoxyphenyl)-1,2,3,4-tetrahydropyrimido[1,2-a]benzimidazol-6-yl]propyl cyclopropanecarboxylate] showed a melting point of 130 to 132 °C. For the same compound, the IC50 on human CRF1 receptor is less than 1000 nM.

In turn, `CCOC(c1ccc(Cl)c2nc3n(c12)CCCN3c1ccc(Cl)cc1Cl)C1CC1` (stereo not shown) [Example 483, 9-Chloro-6-[cyclopropyl(ethoxy)methyl]-1-(2,4-dichlorophenyl)-1,2,3,4-tetrahydropyrimido[1,2-a]benzimidazole] returned a melting point of 138 to 140 °C. The IC50 on human CRF1 receptor is less than 1000 nM.

As for `CCN(CC)c1cccc2nc3n(c12)CCN(C)C3c1ccc(Cl)cc1Cl` (stereo not shown) [Example 506, 1-(2,4-Dichlorophenyl)-N,N-diethyl-2-methyl-1,2,3,4-tetrahydropyrazino[1,2-a]benzimidazol-6-amine], the melting point was 186 to 187 °C. Moreover, the IC50 on human CRF1 receptor was less than 1000 nM.

As for `CCN(CC)c1cccc2nc3n(c12)CCCNC3c1ccc(Cl)cc1Cl` (stereo not shown) [Example 509, 1-(2,4-Dichlorophenyl)-N,N-diethyl-2,3,4,5-tetrahydro-1H-[1,4]diazepino[1,2-a]benzimidazol-7-amine], the melting point was 186 to 188 °C. In addition, at human CRF1 receptor, the IC50 was less than 1000 nM.

As to `CCN(CC)c1cccc2nc3n(c12)CCCN=C3c1ccc(Cl)cc1Cl` [Example 511, 1-(2,4-Dichlorophenyl)-N,N-diethyl-4,5-dihydro-3H-[1,4]diazepino[1,2-a]benzimidazol-7-amine], the melting point was in the range of 93 to 94 °C. In addition, the IC50 on human CRF1 receptor was less than 1000 nM.

For orientation: IC50 means the concentration needed to halve the response being measured. One may read the melting point as the temperature, or range, at which the solid turns liquid.

Source of the values: US8785460B2, “Tricyclic compounds and use thereof” (Takeda Pharmaceutical Company Limited, priority 2008, dated 2014).
